Measured values: patent publication US6743583B2, “Identification of drugs and drug targets by detection of the stress response” (priority 2000, dated 2004)

Tests used:
alg7 heterozygous strain [1] = assay: Microarray fold transcriptional induction of stress response genes; format: cell-based, Saccharomyces cerevisiae; settings: alg7 heterozygote, tunicamycin 0.6 μM, 1 hr, relative to wildtype no drug
Experimental: (§1) In order to identify stress response genes suitable for use in the methods of the present invention, the induction of various stress response genes was tested using microarrays. Three 50 ml cultures were grown at 30° C., a wildtype strain, an alg7 heterozygous strain, and a ymr007w heterozygous strain (the ymr007w strain has been previously shown to be sensitive to tunicamycin, see Giaever, G. et al. (1999) Nature Genet. 21(3):278-283). The wildtype strain was grown in the absence of drug as well as in the presence of […] tunicamycin at an O.D.600 of 1, or approximately 2×10^7 cells/ml for one hour. The alg7 and ymr007w heterozygotes were grown in the presence of […] tunicamycin at an O.D.600 of 1, or approximately 2×10^7 cells/ml for 1 hour. mRNA was then collected from all four samples using standard techniques. cDNA was then prepared from […] of polyadenylated RNA from each sample, using a dT21 primer and Superscript II reverse transcriptase (GibcoBRL) according to manufacturer's recommendation. cDNA was fragmented using DNAseI (GibcoBRL), biotinylated using ddATP (NEN) and Terminal Transferase (Boehringer), and hybridized to yeast full genome arrays (Affymetrix) as described in L. Wodicka et al. (1997) Nature Biotechnol. 15, 1359-1367. Data was analyzed using Affymetrix software.
(§2) In other experiments, the alg 7 and vmr007 heterozygous deletion strains were tested for induction of the stress response in the presence of 0.6 μM tunicamycin for 1 hr (for detailed methods see Example 4). The numbers indicate the fold induction (positive values) or the fold repression (negative values) relative to that of wildype expression in the absence of drug.

[2] = test system: ymr007w heterozygous strain; assay: as above; format: cell-based, Saccharomyces cerevisiae; settings: ymr007w heterozygote, tunicamycin 0.6 μM, 1 hr, relative to wildtype no drug
Experimental: as §1, §2

Wildtype strain [3] = assay: as above; format: cell-based, Saccharomyces cerevisiae
Experimental: as §1
The fold induction of the indicated stress response gene is relative to expression levels in the absence of exposure to the indicated stimuli for the wildtype strain.

alg7 heterozygous strain [4] = settings: cited from earlier work
tub2 heterozygote = assay: HSP26 promoter GFP-uv reporter stress response, fluorimeter; format: cell-based, Saccharomyces cerevisiae; set-up: key: F = fluorescent activity from hsp reporter construct, indicating stress response is induced; NF = no fluorescence, no induction of stress response; settings: predicted expectations
Excerpt: (§3) Stress response gene reporter constructs are generally constructed as follows: approximately 500 bp to approximately 1,000 bp or more region upstream of the first start codon of the stress gene of interest (the region encompassing the stress response gene promoter) is fused to the coding region of a reporter polypeptide (e.g., GFP-uv in pRS316 (Sikorski and Hieter (1989) Genetics 122(1):19-27, Clontech). In a specific exemplary construct, approximately 500 bp of the sequence upstream of the hsp26 gene were ligated to the coding region of GFP-uv in pRS316 to provide for expression of the GFP-uv reporter polypeptide under control of the HSP26 promoter.
(§4) 80% of all heterozygous deletion strains of Saccharomyces cerevisiae have been constructed. Heterozygous deletion strains were generated using homologous gene transplacement (Rothstein, R. (1991) Meth. Enzymol. 194:281-301) in wild-type diploid strains using standard methods. The resulting heterozygotes carry a deletion in one of the two copies of a given gene.
(§5) The above-described HSP26 construct and a control construct (containing no upstream HSP26 promoter sequence) is transformed into 4 strains: a wildtype strain and strains heterozygous for ALG7, HIS3, and TUB2. The his3 heterozygous strain is sensitive to 3-amino triazole; the alg7 heterozygous strain is sensitive to tunicamycin; and the tub2 heterozygous strain is sensitive to benomyl. The expression of hsp26 activity is then monitored using a fluorimeter. Comparisons (with predicted expectations) are as follows: […]

alg7 heterozygote = assay: as above; format: cell-based, Saccharomyces cerevisiae; set-up: key: F = fluorescent activity from hsp reporter construct, indicating stress response is induced; NF = no fluorescence, no induction of stress response; settings: predicted expectations
Excerpt: as §3, §4, §5

his3 heterozygote = assay: as above; format: cell-based, Saccharomyces cerevisiae; set-up: key: F = fluorescent activity from hsp reporter construct, indicating stress response is induced; NF = no fluorescence, no induction of stress response; settings: predicted expectations
Excerpt: as §3, §4, §5

Wildtype strain [5] = assay: as above; format: cell-based, Saccharomyces cerevisiae; set-up: key: F = fluorescent activity from hsp reporter construct, indicating stress response is induced; NF = no fluorescence, no induction of stress response; settings: predicted expectations
Excerpt: as §3, §5

ymr007w strain = settings: previously shown, Giaever et al. 1999; cited from earlier work
tub2 heterozygous strain = settings: cited from earlier work
[6] = TUN 0.6 μM, wildtype, relative to no drug
[7] = Wildtype, tunicamycin 0.6 μM, 1 hr, relative to wildtype no drug (Table 9)

For tunicamycin, the “fold induction (positive) or fold repression (negative) of HXT5 (YHR096C)” value (“fold induction … (negative) of HXT5 (YHR096C)” below) (alg7 heterozygous strain [1]) was 1 fold, the “fold induction (positive) or fold repression (negative) of YMR107W” value (“fold induction … (negative) of YMR107W” for short) (alg7 heterozygous strain [1]) was 1 fold and the “fold induction (positive) or fold repression (negative) of HSP26 (YBR072W)” value [2] was 1.4 fold. For the same compound, the “fold induction … (negative) of HXT5 (YHR096C)” value [2] was 1 fold, the “fold induction … (negative) of YMR107W” value [2] was 1 fold and the “fold induction of AMS1 (YGL156W)” value (Wildtype strain [3]; [6]) was 20 fold. The “fold induction of DDR48 (YMR173w)” value (Wildtype strain [3]; [6]) was 4.3 fold, the “fold induction of GFA1 (YKL104C)” value (Wildtype strain [3]; [6]) was 11.2 fold and the “fold induction of GSC2 (YGR032W)” value (Wildtype strain [3]; [6]) was 9.2 fold. The “fold induction of HSP10 (YOR020C)” value (Wildtype strain [3]; [6]) was 2 fold, the “fold induction of HSP12 (YFL014W)” value (Wildtype strain [3]; [6]) was 2.9 fold and the “fold induction of HSP26 (YBR072W)” value (Wildtype strain [3]; [6]) was 18 fold. The “fold induction of HSP30 (YCR021C)” value (Wildtype strain [3]; [6]) was 2 fold, the “fold induction of HSP42 (YDR171w)” value (Wildtype strain [3]; [6]) was 6 fold and the “fold induction of HSP60 (YLR259C)” value (Wildtype strain [3]; [6]) was 1 fold. For the same compound, the “fold induction of HSP78 (YDR258C)” value (Wildtype strain [3]; [6]) was 6.5 fold, the “fold induction of HSP82 (YPL240C)” value (Wildtype strain [3]; [6]) was 2.8 fold and the “fold induction of HSP104 (YLL026W)” value (Wildtype strain [3]; [6]) was 2 fold. The “fold induction of HXT5 (YHR096C)” value (Wildtype strain [3]; [6]) was 200 fold, the “fold induction of ISF1 (YMR081C)” value (Wildtype strain [3]; [6]) was 3.5 fold and the “fold induction of PAI3 (YMR174C)” value (Wildtype strain [3]; [6]) was 6.1 fold. For the same compound, the “fold induction of PRY1 (YJL079C)” value (Wildtype strain [3]; [6]) was 13 fold, the “fold induction of PUT1 (YLR142W)” value (Wildtype strain [3]; [6]) was 25 fold and the “fold induction of SNZ3 (YFL059W)” value (Wildtype strain [3]; [6]) was 25 fold. The “fold induction of SSA1 (YAL005C)” value (Wildtype strain [3]; [6]) was 1 fold, the “fold induction of TSI1 (YLR178C)” value (Wildtype strain [3]; [6]) was 6.2 fold and the “fold induction of UBC5 (YDR059c)” value (Wildtype strain [3]; [6]) was 2.1 fold. The “fold induction of YBL049W” value (Wildtype strain [3]; [6]) was 15 fold, the “fold induction of YDR018C” value (Wildtype strain [3]; [6]) was 7.5 fold and the “fold induction of YFL030W” value (Wildtype strain [3]; [6]) was 11 fold. The “fold induction of YFR026C” value (Wildtype strain [3]; [6]) was 20.9 fold, the “fold induction of YGR043C” value (Wildtype strain [3]; [6]) was 17 fold and the “fold induction of YIL042C” value (Wildtype strain [3]; [6]) was 5 fold. For the same compound, the “fold induction of YIL117C” value (Wildtype strain [3]; [6]) was 13 fold, the “fold induction of YJL144W” value (Wildtype strain [3]; [6]) was 19.1 fold and the “fold induction of YKL107W” value (Wildtype strain [3]; [6]) was 112 fold. The “fold induction of YLR053C” value (Wildtype strain [3]; [6]) was 200 fold, the “fold induction of YLR080W” value (Wildtype strain [3]; [6]) was 8.4 fold and the “fold induction of YLR194C” value (Wildtype strain [3]; [6]) was 5.1 fold. The “fold induction of YMR040W” value (Wildtype strain [3]; [6]) was 12.8 fold, the “fold induction of YMR090W” value (Wildtype strain [3]; [6]) was 5.6 fold and the “fold induction of YMR107W” value (Wildtype strain [3]; [6]) was 79 fold. The “fold induction of YNL194C” value (Wildtype strain [3]; [6]) was 4.5 fold, the “fold induction of YPS3 (YLR121C)” value (Wildtype strain [3]; [6]) was 15 fold and the “fold induction (positive) or fold repression (negative) of HSP26 (YBR072W)” value (Wildtype strain [3]; [7]) was 17 fold. The “fold induction … (negative) of HXT5 (YHR096C)” value (Wildtype strain [3]; [7]) was 50 fold, the “fold induction (positive) or fold repression (negative) of YGR043C” value (Wildtype strain [3]; [7]) was 17 fold and the “fold induction … (negative) of YMR107W” value (Wildtype strain [3]; [7]) was 40 fold. The “fold induction (positive) or fold repression (negative) of YPS3 (YLR121C)” value (Wildtype strain [3]; [7]) was 15 fold, the “sensitivity of strain to drug” value (alg7 heterozygous strain [4]) was “sensitive” and the “fluorescent activity from hsp26 reporter construct” value (shortened to “fluorescent activity”) (tub2 heterozygote) was “F”. The “fluorescent activity” value (alg7 heterozygote) was “NF”, the “fluorescent activity” value (his3 heterozygote) was “F” and the “fluorescent activity” value (Wildtype strain [5]) was “F”. The “sensitivity of strain to drug” value (ymr007w strain) was “sensitive”.

For CCCCNC(=O)n1c(NC(=O)OC)nc2ccccc21 [benomyl], the “sensitivity of strain to drug” value (tub2 heterozygous strain) is given as “sensitive”, the “fluorescent activity” value (tub2 heterozygote) is given as “NF” and the “fluorescent activity” value (alg7 heterozygote) is given as “F”. The “fluorescent activity” value (his3 heterozygote) was “F” and the “fluorescent activity” value (Wildtype strain [5]) was “F”.
